Measured values taken from PMC12533803, “Rotenoids from the Roots of Vicia faba L. (Fabaceae): Structural Characterization, Cytotoxic Effects, and Molecular Docking” (Chemistry & Biodiversity, 2025).
pIC50: −log10 of the molar value.

Columns and labels:
[1] = tested on: HCT‐116 (human colorectal carcinoma) cell line; test: MTT cytotoxicity assay, HCT-116; format: cell-based; conditions: for cytotoxic activity HCT‐116: MTT, 0.0032 to 50 µM, 72 h
Method: (§1) ATCC CCL 247), 501Mel (melanoma; RRID: CVCL_4633), and MCF‐7 (breast adenocarcinoma; ATCC HTB 22), along with non‐tumor cells line NIH/3T3 (mouse embryonic fibroblast; ATCC CRL 1658). […] Cells were kept at 37°C in a humidified atmosphere containing 5% CO2. […] At the end of the incubation period, the culture medium was replaced with a fresh medium containing MTT solution (0.5 mg/mL) and further incubated for 3 h. The MTT solution was then removed, and the formazan crystals formed were dissolved in 150 µL of DMSO. Absorbance for each well was measured at 570 nm, and then the values thereof were normalized in the percentage of viable cells based on that of the negative control.

[2] = tested on: NIH/3T3 (mouse embryonic fibroblast) cell line; test: MTT cytotoxicity assay, non-tumor NIH/3T3; format: cell-based; conditions: for cytotoxic activity NIH/3T3: 0.0032 to 50 µM, 72 h
Method: as §1

[3] = tested on: 501Mel (melanoma) cell line; test: MTT cytotoxicity assay, 501Mel; format: cell-based, human; conditions: for cytotoxic activity 501Mel: 0.0032 to 50 µM, 72 h
Method: as §1

[4] = tested on: MCF‐7 (breast adenocarcinoma) cell line; test: MTT cytotoxicity assay, MCF-7; format: cell-based, human; conditions: for cytotoxic activity MCF‐7: MTT, 0.0032 to 50 µM, 72 h
Method: as §1

| SMILES | cytotoxic activity HCT‐116 [1] | cytotoxic activity NIH/3T3 [2] | cytotoxic activity 501Mel ([3]; MTT) | cytotoxic activity MCF‐7 [4] | Selectivity Index (SI) HCT‐116 ([1]; HCT-116 versus NIH/3T3) | pIC50 ([2]; Mus musculus, NIH3T3, 72 h incubation, non-tumor cells) | Selectivity Index (SI) 501Mel ([3]; 501Mel versus NIH/3T3) | pIC50 ([3]; Homo sapiens, MTT, 72 h incubation) | Selectivity Index (SI) MCF‐7 ([4]; MCF-7 versus NIH/3T3) |
| --- | --- | --- | --- | --- | --- | --- | --- | --- | --- |
| COc1ccc(-c2coc3cc(OC)c(O)cc3c2=O)cc1 [Compound 2, Alfalone] | no cytotoxic activity | no cytotoxic activity | no cytotoxic activity | no cytotoxic activity |  |  |  |  |  |
| COc1ccc(-c2coc3c(OC)c(O)ccc3c2=O)cc1 [Compound 3, 8‐O‐methylretusin] | no cytotoxic activity | no cytotoxic activity | no cytotoxic activity | no cytotoxic activity |  |  |  |  |  |
| COc1cccc2c1C(=O)c1c(O)c3c(c(O)c1C2=O)C[C@@](O)(C(=O)CO)C[C@@H]3O[C@H]1C[C@H](N)[C@H](O)[C@H](C)O1 [Doxorubicin, reference compound] |  |  |  |  | 7.0 | 6.46 | 2.91 | 6.92 | 11.67 |
